The source of these data is patent US9232793B2, “Methods of inhibiting microbial growth using deoxyaldohexoses” (LVMH Recherche, priority 2008, dated 2016).

Experiment in all cases: Agar diffusion antimicrobial test, MIC determination
What all share (format): cell-based
For orientation: A growth-free zone around the sample is the usual read-out of agar diffusion tests.

In test [1] the test system is Aspergillus niger IP 1431.83. As to conditions: A. niger. As to the method: (§1) The culture medium at pH 6, pH 7 and pH 8, inoculated beforehand with the test strains, is poured into Petri dishes, with one pH and one strain per dish. After solidification, 100 μl are deposited for each of the concentrations of the test substance, as well as a solvent control and a positive control. After incubation, the inhibition diameter is measured after diffusion of the test product into the agar, and there is deduced therefrom the minimum bacteriostatic concentration (MIC), which is the lowest concentration of product inhibiting the multiplication of the microbes. The test strains are the following: • Aspergillus niger IP 1431.83, • Candida albicans IP 48.72, • Enterococcus hirae CIP 58.55, • Staphylococcus aureus CIP 4.83, • Burkholdena cepacia CIP 103924, • Pseudomonas aeruginosa CIP 82.1118. For each strain, 120 ml of each of the three Mueller Hinton media pH 6, pH 7 and pH 8 are inoculated with 1.2 ml of each suspension of microbe having a titre of 10^7 CFU/ml in order to obtain a titre equal to 10^5 CFU/ml. 15 ml are poured into each dish, with one dish per medium and per strain. After solidification, three steel cylinders are placed at the surface of each dish. 100 mg (approximately) of the powder consisting of the test alkyl glycoside are taken up in 1 ml of methanol (solution A at 10%). Next, the concentration range is prepared as described below: • Solution B1 at 1%: 300 μl of solution A+2.7 ml of sterile water, • Solution B2 at 0.5%: 300 μl of solution A+5.7 ml of sterile water, • Solution B3 at 0.1%: 1 ml of solution B1+9 ml of sterile water, • Solution B4 at 0.05%: 1 ml of solution B2+9 ml of sterile water. Only solutions B2, B3 and B4 are tested during the trial. 100 μl (pH 6, pH 7 and pH 8) of the following solutions are introduced into each cylinder: • Methanol control (prepared for each strain at pH 7), • Solution B4 at 0.05%, • Solution B3 at 0.1%, • Solution B2 at 0.5%. Incubation at 37° C.±1° C. for 24 hours (48 h for Enterococcus hirae). The inhibition of growth of the microbes leads to measurement, using a vernier caliper, in millimeters, of an inhibition diameter after diffusion of the test product into the agar. The minimum bacteriostatic concentration (MIC) is given by the lowest concentration of product which inhibits the multiplication of the microbes. In the case where the highest concentration ([…]) is not active, this is noted (>500). The tests were carried out on various strains at pH 7, for alkyl glycoside concentrations equal to 0.05%, 0.1% and 0.5% by weight.

Test [2] relates to Pseudomonas aeruginosa CIP 82.1118. As to conditions: P. aeruginosa. As to the method: as §1
Test [3] relates to Burkholdena cepacia CIP 103924. As to conditions: B. cepacia. The method, then:
as §1

The subject of test [4] is Candida albicans IP 48.72. Conditions: C. albicans. As to the method:
as §1

Test [5] concerns Enterococcus hirae CIP 58.55. As to conditions: E. hirae. The method, then:
as §1

Test [6] concerns Staphylococcus aureus CIP 4.83. Conditions: S. aureus. The method, then:
as §1

Some results are limits rather than exact numbers.

One may read the MIC as the least concentration at which growth counts as inhibited. A higher MIC goes with a less susceptible organism.

Consider `CCCCCCCCO[C@H]1O[C@@H](C)[C@@H](O)[C@@H](O)[C@@H]1O` [Fuc-8, octyl beta-L-fucoside], for which the minimal inhibitory concentration (MIC) in test [1] (pH 7) was 50 µg/mL; in test [1] (pH 7, value in brackets), 181 µM; in test [2] (pH 7), > 500 µg/mL; in test [2] (pH 7, value in brackets), > 1810 µM; in test [3] (pH 7) it was > 500 µg/mL; in test [3] (pH 7, value in brackets), > 1810 µM. Moreover, the minimal inhibitory concentration (MIC) in test [4] (pH 7) stood at 100 µg/mL; in test [4] (pH 7, value in brackets) it was 362 µM; in test [5] (pH 7), 50 µg/mL; in test [5] (pH 7, value in brackets), 181 µM; in test [6] (pH 7) it was 50 µg/mL; in test [6] (pH 7, value in brackets) it was 181 µM.

For `CCCCCCCCCCCCO[C@H]1O[C@@H](C)[C@@H](O)[C@@H](O)[C@@H]1O` [Fuc-12, dodecyl beta-L-fucoside], the minimal inhibitory concentration (MIC) in test [1] (pH 7) was 50 µg/mL; in test [1] (pH 7, value in brackets), 150 µM; in test [2] (pH 7), > 500 µg/mL; in test [2] (pH 7, value in brackets), > 1500 µM; in test [3] (pH 7), > 500 µg/mL; in test [3] (pH 7, value in brackets), > 1500 µM. For the same compound, the MIC in test [4] (pH 7) is > 500 µg/mL; in test [4] (pH 7, value in brackets), > 1500 µM; in test [5] (pH 7), 50 µg/mL; in test [5] (pH 7, value in brackets), 150 µM; in test [6] (pH 7), 50 µg/mL; in test [6] (pH 7, value in brackets), 150 µM.

Regarding `CCCCCCCCCCCCOC1O[C@@H](C)[C@H](O)[C@@H](O)[C@H]1O` (stereo partly drawn) [Rha-12, dodecyl L-rhamnoside], the MIC was determined as 50 µg/mL in test [1] (pH 7); 150 µM in test [1] (pH 7, value in brackets); 50 µg/mL in test [2] (pH 7); 150 µM in test [2] (pH 7, value in brackets); 100 µg/mL in test [3] (pH 7); 301 µM in test [3] (pH 7, value in brackets). Moreover, the minimal inhibitory concentration (MIC) came to 50 µg/mL in test [4] (pH 7); 150 µM in test [4] (pH 7, value in brackets); 50 µg/mL in test [5] (pH 7); 150 µM in test [5] (pH 7, value in brackets); 50 µg/mL in test [6] (pH 7); 150 µM in test [6] (pH 7, value in brackets).

Turning to `CCCCCCCCOC1O[C@@H](C)[C@H](O)[C@@H](O)[C@H]1O` (stereo partly drawn) [Rha-8, octyl L-rhamnoside], the MIC stood at 50 µg/mL in test [1] (pH 7); 181 µM in test [1] (pH 7, value in brackets); 100 µg/mL in test [2] (pH 7); 362 µM in test [2] (pH 7, value in brackets); 100 µg/mL in test [3] (pH 7); 362 µM in test [3] (pH 7, value in brackets). Besides, the MIC came out at 100 µg/mL in test [4] (pH 7); 362 µM in test [4] (pH 7, value in brackets); 50 µg/mL in test [5] (pH 7); 181 µM in test [5] (pH 7, value in brackets); 50 µg/mL in test [6] (pH 7); 181 µM in test [6] (pH 7, value in brackets).
